system: not listed separately; assay: Stability in human liver microsomes assessed as parent compound remaining after 10 mins; format: ADME, Microsome; details: liver microsomes, read-out: Stability

| SMILES | remaining at 10 min [%] |
| --- | --- |
| CC[C@]1(C(=O)O)CC[C@H](C(=O)N2CC[C@](c3ccc(C(F)(C(F)(F)F)C(F)(F)F)cc3)(S(=O)(=O)c3ccc(F)cc3)C2)CC1 | 100 |
| O=C(C1CCS(=O)(=O)CC1)N1CC[C@](c2ccc(C(F)(C(F)(F)F)C(F)(F)F)cc2)(S(=O)(=O)c2ccc(F)cc2)C1 | 93 |
| O=C(O)[C@@H]1[C@@H]2C[C@@H](C(=O)N3CC[C@](c4ccc(C(F)(C(F)(F)F)C(F)(F)F)cc4)(S(=O)(=O)c4ccc(F)cc4)C3)C[C@@H]21 | 100 |

Results, then the compound that gave them:

| remaining at 10 min [%] | SMILES |
| --- | --- |
| 97 | O=C(O)[C@H]1CC[C@H](C(=O)N2CC[C@](c3ccc(C(F)(C(F)(F)F)C(F)(F)F)cc3)(S(=O)(=O)c3ccc(F)cc3)C2)CC1 |
| 75 | O=C(N1CC[C@](c2ccc(C(F)(C(F)(F)F)C(F)(F)F)cc2)(S(=O)(=O)c2ccc(F)cc2)C1)C1(CO)CCS(=O)(=O)CC1 |

target: T1, Nuclear receptor subfamily 1 group I member 2 (Homo sapiens, UniProt O75469); assay: Transactivation of PXR (unknown origin) expressed in human HepG2 cells; format: cell-based; details: not given
T1 sequence (O75469 whole entry): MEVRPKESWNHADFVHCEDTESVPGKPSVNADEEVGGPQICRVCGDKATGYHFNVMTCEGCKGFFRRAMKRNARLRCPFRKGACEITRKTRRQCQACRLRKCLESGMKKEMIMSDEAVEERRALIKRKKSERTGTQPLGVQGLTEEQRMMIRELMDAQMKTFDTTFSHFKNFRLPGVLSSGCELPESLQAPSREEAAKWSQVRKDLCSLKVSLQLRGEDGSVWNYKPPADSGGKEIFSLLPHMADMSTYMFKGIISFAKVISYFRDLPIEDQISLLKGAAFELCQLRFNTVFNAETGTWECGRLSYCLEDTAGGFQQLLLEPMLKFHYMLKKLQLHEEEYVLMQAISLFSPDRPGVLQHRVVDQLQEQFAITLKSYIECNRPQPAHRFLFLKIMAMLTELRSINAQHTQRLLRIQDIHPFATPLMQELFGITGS

| EC50 [µM] | SMILES |
| --- | --- |
| > 50 | CC[C@]1(C(=O)O)CC[C@H](C(=O)N2CC[C@](c3ccc(C(F)(C(F)(F)F)C(F)(F)F)cc3)(S(=O)(=O)c3ccc(F)cc3)C2)CC1 |
| > 50 | O=C(C1CCS(=O)(=O)CC1)N1CC[C@](c2ccc(C(F)(C(F)(F)F)C(F)(F)F)cc2)(S(=O)(=O)c2ccc(F)cc2)C1 |
| > 50 | O=C(O)[C@@H]1[C@@H]2C[C@@H](C(=O)N3CC[C@](c4ccc(C(F)(C(F)(F)F)C(F)(F)F)cc4)(S(=O)(=O)c4ccc(F)cc4)C3)C[C@@H]21 |
| > 50 | O=C(N1CC[C@](c2ccc(C(F)(C(F)(F)F)C(F)(F)F)cc2)(S(=O)(=O)c2ccc(F)cc2)C1)C1(CO)CCS(=O)(=O)CC1 |

target: T2, PXR (Homo sapiens, UniProt O75469); assay: Transactivation of PXR (unknown origin) expressed in human HepG2 cells assessed as maximum receptor activation response relative to control; format: cell-based; details: human HepG2 cells that express PXR, read-out: %max
T2 sequence (O75469 whole entry): T1 sequence (O75469 whole entry)

| Emax [%] | SMILES |
| --- | --- |
| 6 | CC[C@]1(C(=O)O)CC[C@H](C(=O)N2CC[C@](c3ccc(C(F)(C(F)(F)F)C(F)(F)F)cc3)(S(=O)(=O)c3ccc(F)cc3)C2)CC1 |
| 5 | O=C(C1CCS(=O)(=O)CC1)N1CC[C@](c2ccc(C(F)(C(F)(F)F)C(F)(F)F)cc2)(S(=O)(=O)c2ccc(F)cc2)C1 |
| 11 | O=C(O)[C@@H]1[C@@H]2C[C@@H](C(=O)N3CC[C@](c4ccc(C(F)(C(F)(F)F)C(F)(F)F)cc4)(S(=O)(=O)c4ccc(F)cc4)C3)C[C@@H]21 |
| 8 | O=C(N1CC[C@](c2ccc(C(F)(C(F)(F)F)C(F)(F)F)cc2)(S(=O)(=O)c2ccc(F)cc2)C1)C1(CO)CCS(=O)(=O)CC1 |

system: not listed separately; assay: Stability in mouse liver microsomes assessed as parent compound remaining after 10 mins; format: ADME, Microsome; details: liver microsomes, read-out: Stability

| remaining at 10 min [%] | SMILES |
| --- | --- |
| 96 | O=C(C1CCS(=O)(=O)CC1)N1CC[C@](c2ccc(C(F)(C(F)(F)F)C(F)(F)F)cc2)(S(=O)(=O)c2ccc(F)cc2)C1 |
| 84 | O=C(O)[C@@H]1[C@@H]2C[C@@H](C(=O)N3CC[C@](c4ccc(C(F)(C(F)(F)F)C(F)(F)F)cc4)(S(=O)(=O)c4ccc(F)cc4)C3)C[C@@H]21 |
| 31 | O=C(N1CC[C@](c2ccc(C(F)(C(F)(F)F)C(F)(F)F)cc2)(S(=O)(=O)c2ccc(F)cc2)C1)C1(CO)CCS(=O)(=O)CC1 |

target: T3, Nuclear receptor ROR-alpha (Homo sapiens, UniProt P35398); assay: Inverse agonist activity at human Gal4-fused RORalpha LBD (272 to 556 residues) expressed in human Jurkat cells measured after 18 hrs by steady-glo luciferase reporter gene assay; format: cell-based; details: not given
T3 sequence (P35398 whole entry): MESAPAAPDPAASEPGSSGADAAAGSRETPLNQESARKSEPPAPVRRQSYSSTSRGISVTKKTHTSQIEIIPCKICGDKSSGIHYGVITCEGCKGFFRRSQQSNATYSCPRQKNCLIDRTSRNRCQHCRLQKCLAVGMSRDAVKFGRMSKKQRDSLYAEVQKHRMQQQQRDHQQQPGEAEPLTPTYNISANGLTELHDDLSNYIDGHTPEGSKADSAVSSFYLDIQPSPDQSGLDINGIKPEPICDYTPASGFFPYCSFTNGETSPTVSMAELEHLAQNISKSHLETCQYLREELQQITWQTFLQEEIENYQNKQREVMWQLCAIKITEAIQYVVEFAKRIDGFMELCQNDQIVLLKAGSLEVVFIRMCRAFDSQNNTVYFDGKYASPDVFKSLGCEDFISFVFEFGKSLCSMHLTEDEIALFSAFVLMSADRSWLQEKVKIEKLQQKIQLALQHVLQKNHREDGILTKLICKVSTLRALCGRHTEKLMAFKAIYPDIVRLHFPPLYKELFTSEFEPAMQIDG

| SMILES | EC50 [µM] |
| --- | --- |
| CC[C@]1(C(=O)O)CC[C@H](C(=O)N2CC[C@](c3ccc(C(F)(C(F)(F)F)C(F)(F)F)cc3)(S(=O)(=O)c3ccc(F)cc3)C2)CC1 | > 40 |
| O=C(C1CCS(=O)(=O)CC1)N1CC[C@](c2ccc(C(F)(C(F)(F)F)C(F)(F)F)cc2)(S(=O)(=O)c2ccc(F)cc2)C1 | > 40 |
| O=C(O)[C@@H]1[C@@H]2C[C@@H](C(=O)N3CC[C@](c4ccc(C(F)(C(F)(F)F)C(F)(F)F)cc4)(S(=O)(=O)c4ccc(F)cc4)C3)C[C@@H]21 | > 40 |

The remaining lines, values ahead:

| EC50 [µM] | SMILES |
| --- | --- |
| > 40 | O=C(O)[C@H]1CC[C@H](C(=O)N2CC[C@](c3ccc(C(F)(C(F)(F)F)C(F)(F)F)cc3)(S(=O)(=O)c3ccc(F)cc3)C2)CC1 |
| > 40 | O=C(N1CC[C@](c2ccc(C(F)(C(F)(F)F)C(F)(F)F)cc2)(S(=O)(=O)c2ccc(F)cc2)C1)C1(CO)CCS(=O)(=O)CC1 |

target: T4, Nuclear receptor ROR-beta (Homo sapiens, UniProt Q92753); assay: Inverse agonist activity at human Gal4-fused RORbeta LBD (200 to 559 residues) expressed in human Jurkat cells measured after 18 hrs by steady-glo luciferase reporter gene assay; format: cell-based; details: not given
T4 sequence (Q92753 whole entry): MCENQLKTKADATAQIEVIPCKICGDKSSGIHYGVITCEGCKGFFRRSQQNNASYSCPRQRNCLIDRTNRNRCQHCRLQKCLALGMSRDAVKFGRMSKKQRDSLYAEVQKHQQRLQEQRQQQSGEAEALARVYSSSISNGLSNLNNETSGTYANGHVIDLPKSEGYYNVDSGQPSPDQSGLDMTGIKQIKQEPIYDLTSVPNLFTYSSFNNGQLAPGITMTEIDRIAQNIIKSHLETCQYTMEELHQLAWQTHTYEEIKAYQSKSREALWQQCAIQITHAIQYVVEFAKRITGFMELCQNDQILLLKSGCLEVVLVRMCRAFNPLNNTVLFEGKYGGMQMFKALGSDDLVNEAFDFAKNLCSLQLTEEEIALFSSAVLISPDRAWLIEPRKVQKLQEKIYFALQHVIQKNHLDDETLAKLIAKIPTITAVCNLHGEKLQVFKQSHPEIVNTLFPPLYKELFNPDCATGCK

| SMILES | EC50 [µM] |
| --- | --- |
| CC[C@]1(C(=O)O)CC[C@H](C(=O)N2CC[C@](c3ccc(C(F)(C(F)(F)F)C(F)(F)F)cc3)(S(=O)(=O)c3ccc(F)cc3)C2)CC1 | > 40 |
| O=C(C1CCS(=O)(=O)CC1)N1CC[C@](c2ccc(C(F)(C(F)(F)F)C(F)(F)F)cc2)(S(=O)(=O)c2ccc(F)cc2)C1 | > 40 |
| O=C(O)[C@@H]1[C@@H]2C[C@@H](C(=O)N3CC[C@](c4ccc(C(F)(C(F)(F)F)C(F)(F)F)cc4)(S(=O)(=O)c4ccc(F)cc4)C3)C[C@@H]21 | > 40 |

Results, then the compound that gave them:

| EC50 [µM] | SMILES |
| --- | --- |
| > 40 | O=C(O)[C@H]1CC[C@H](C(=O)N2CC[C@](c3ccc(C(F)(C(F)(F)F)C(F)(F)F)cc3)(S(=O)(=O)c3ccc(F)cc3)C2)CC1 |
| > 40 | O=C(N1CC[C@](c2ccc(C(F)(C(F)(F)F)C(F)(F)F)cc2)(S(=O)(=O)c2ccc(F)cc2)C1)C1(CO)CCS(=O)(=O)CC1 |

target: T5, Oxysterols receptor LXR-alpha (Homo sapiens, UniProt Q13133); assay: Transactivation of human GAL4-fused LXRalpha expressed in African green monkey CV1 cells; format: cell-based; details: not given
T5 sequence (Q13133 whole entry): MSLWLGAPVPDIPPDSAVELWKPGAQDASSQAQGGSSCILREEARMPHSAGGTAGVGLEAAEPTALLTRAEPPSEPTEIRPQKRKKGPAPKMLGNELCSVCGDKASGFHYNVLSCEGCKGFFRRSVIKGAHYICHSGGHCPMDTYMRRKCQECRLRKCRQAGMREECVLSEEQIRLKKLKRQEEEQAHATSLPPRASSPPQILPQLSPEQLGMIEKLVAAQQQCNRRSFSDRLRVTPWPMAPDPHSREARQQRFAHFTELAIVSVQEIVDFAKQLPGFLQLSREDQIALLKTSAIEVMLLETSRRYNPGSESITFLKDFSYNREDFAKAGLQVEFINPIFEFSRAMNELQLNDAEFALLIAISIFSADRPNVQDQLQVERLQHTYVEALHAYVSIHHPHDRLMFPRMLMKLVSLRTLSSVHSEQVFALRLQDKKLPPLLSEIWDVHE

| SMILES | EC50 [µM] |
| --- | --- |
| CC[C@]1(C(=O)O)CC[C@H](C(=O)N2CC[C@](c3ccc(C(F)(C(F)(F)F)C(F)(F)F)cc3)(S(=O)(=O)c3ccc(F)cc3)C2)CC1 | > 7.5 |
| O=C(C1CCS(=O)(=O)CC1)N1CC[C@](c2ccc(C(F)(C(F)(F)F)C(F)(F)F)cc2)(S(=O)(=O)c2ccc(F)cc2)C1 | > 7.5 |
| O=C(O)[C@@H]1[C@@H]2C[C@@H](C(=O)N3CC[C@](c4ccc(C(F)(C(F)(F)F)C(F)(F)F)cc4)(S(=O)(=O)c4ccc(F)cc4)C3)C[C@@H]21 | > 7.5 |

Continued, values first:

| EC50 [µM] | SMILES |
| --- | --- |
| > 7.5 | O=C(O)[C@H]1CC[C@H](C(=O)N2CC[C@](c3ccc(C(F)(C(F)(F)F)C(F)(F)F)cc3)(S(=O)(=O)c3ccc(F)cc3)C2)CC1 |
| > 7.5 | O=C(N1CC[C@](c2ccc(C(F)(C(F)(F)F)C(F)(F)F)cc2)(S(=O)(=O)c2ccc(F)cc2)C1)C1(CO)CCS(=O)(=O)CC1 |

target: T6, Oxysterols receptor LXR-beta (Homo sapiens, UniProt P55055); assay: Transactivation of human GAL4-fused LXRbeta expressed in African green monkey CV1 cells; format: cell-based; details: not given
T6 sequence (P55055 whole entry): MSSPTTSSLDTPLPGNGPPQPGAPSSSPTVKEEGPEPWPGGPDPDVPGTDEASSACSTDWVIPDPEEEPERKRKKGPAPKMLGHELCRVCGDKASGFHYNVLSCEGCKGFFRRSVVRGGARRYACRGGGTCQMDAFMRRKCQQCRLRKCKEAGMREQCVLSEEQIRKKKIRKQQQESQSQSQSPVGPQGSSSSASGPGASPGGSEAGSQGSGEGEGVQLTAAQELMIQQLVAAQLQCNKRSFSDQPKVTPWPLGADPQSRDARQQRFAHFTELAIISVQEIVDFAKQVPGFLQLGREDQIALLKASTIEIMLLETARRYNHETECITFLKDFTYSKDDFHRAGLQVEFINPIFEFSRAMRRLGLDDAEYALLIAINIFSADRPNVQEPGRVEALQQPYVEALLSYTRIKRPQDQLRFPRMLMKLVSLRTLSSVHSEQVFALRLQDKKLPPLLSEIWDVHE

| SMILES | EC50 [µM] |
| --- | --- |
| CC[C@]1(C(=O)O)CC[C@H](C(=O)N2CC[C@](c3ccc(C(F)(C(F)(F)F)C(F)(F)F)cc3)(S(=O)(=O)c3ccc(F)cc3)C2)CC1 | > 7.5 |
| O=C(C1CCS(=O)(=O)CC1)N1CC[C@](c2ccc(C(F)(C(F)(F)F)C(F)(F)F)cc2)(S(=O)(=O)c2ccc(F)cc2)C1 | > 7.5 |
| O=C(O)[C@@H]1[C@@H]2C[C@@H](C(=O)N3CC[C@](c4ccc(C(F)(C(F)(F)F)C(F)(F)F)cc4)(S(=O)(=O)c4ccc(F)cc4)C3)C[C@@H]21 | > 7.5 |

Further lines, results first:

| EC50 [µM] | SMILES |
| --- | --- |
| > 7.5 | O=C(O)[C@H]1CC[C@H](C(=O)N2CC[C@](c3ccc(C(F)(C(F)(F)F)C(F)(F)F)cc3)(S(=O)(=O)c3ccc(F)cc3)C2)CC1 |
| > 7.5 | O=C(N1CC[C@](c2ccc(C(F)(C(F)(F)F)C(F)(F)F)cc2)(S(=O)(=O)c2ccc(F)cc2)C1)C1(CO)CCS(=O)(=O)CC1 |
